{"source": "patent US4175544A", "about": "“Iodo-aryl carbonates for use in methods in radiography” (Lafayette Pharmacal Inc., priority 1978, dated 1979)", "key": {"[1]": {"tested_on": "albino mice", "assay": "Initial toxicity screen: Approximate Lethal Dose by intraperitoneal injection (Deichmann and LeBlanc)", "assay_type": "in vivo", "conditions": "20% w/v in Sesame oil, for r also footnote (b): largest dose administered"}, "[2]": {"tested_on": "albino mice", "assay": "Initial toxicity screen: Approximate Lethal Dose by intraperitoneal injection (Deichmann and LeBlanc)", "assay_type": "in vivo", "conditions": "for Approximate Lethal Dose (ALD): intraperitoneal, albino mice, neat liquid or suspension, footnote (b): largest dose administered (e, f, i, p, q)", "experimental": "As an initial toxicity screen for the compounds shown hereinabove, the neat liquid or suspension of the material was injected into the peritoneal cavity of albino mice and the Approximate Lethal Dose (ALD) determined using the method of Deichmann and LeBlanc (W. B. Deichmann and T. J. LeBlanc, J. Ind. Hyg., 25, 415 (1943)) the results of which are presented in Table II, as set forth hereinafter.\nApproximate Interperitoneal Toxicity in Mice\nApproximate Lethal Dose Ml/Kg"}, "[3]": {"tested_on": "brain and spinal cord", "assay": "Suboccipital study of laboratory animals (neurotoxicity, brain and spinal cord histopathology)", "assay_type": "in vivo, laboratory rats", "conditions": "rat; for Overall / histopathological response: 0.1 ml suboccipital injection, 1 to 14 weeks; for Difficulty with righting responses / Recovery from the injection procedure: suboccipital injection; for Recovery from the injection procedure: as a group; for Lipid puddle formation: compared with air and Pantopaque", "experimental": "Six iodinated phenyl carbonate compounds prepared as described above, as well as air and Pantopaque, a known prior art radiographic compound, were injected suboccipitally into separate groups of 30 laboratory rats. The six iodinated compounds under examination were p-iodobenzyl-n-hexyl carbonate, p-iodobenzyl-n-octyl carbonate, p-iodobenzyl-2-octyl carbonate, 2-ethylhexyl-p-iodobenzyl carbonate, n-hexyl-3-(p-iodophenyl)propyl carbonate and n-hexyl-2-(p-iodobenzyl)butyl carbonate. Six rats from each injected group were then sacrificed at periodic intervals and the brain and spinal cord removed for histopathological evaluation. By comparing the results of air and Pantopaque with the results using the iodinated compounds, an evaluation of their relative neurotoxicity was obtained.\nThe groups of rats were first subjected to standard quarantine procedure at the Lafayette Pharmacol, Inc. facilities for at least two weeks prior to dosing. About 18 hours prior to dosing, food was withdrawn but water was allowed ad lib. During injection, each animal was anesthetized in an ether chamber and the back of the neck closely clipped. After placing the animal on a board with the head declined at 45°, a puncture was made just at the base of the atlas and 0.1 ml. of the selected test substance was injected. Radiographs were then taken immediately after dosing to confirm the intrathecal location of the injected bolus, and the animals were returned to their cages for observation.\nOne group of six animals for each tested substance was then sacrificed at the following elapsed times post injection: 1 week; 2 weeks; 4 weeks; 8 weeks and 14 weeks. At sacrifice, the animal were perfused with saline and formalin. Each animal was again radiographed and the brain and spinal cord then removed and stored for histopathological study."}, "[4]": {"tested_on": "lymph nodes (popliteal and iliac)", "conditions": "dog, in vivo", "method": "Four iodinated organic carbonates prepared as described hereinabove were evaluated for use as lymphographic agents in laboratory dogs.\nSix adult mongrel dogs, preconditioned for at least two weeks at the Lafayette Pharmacal, Inc. facilities, were used for the study. The dogs were removed from food the evening prior to dosing. Each animal was first anesthetized with Rompun and sodium pentobarbital and intubated to assist in breathing. A standard lymphogram was then performed on one rear leg only of each animal using known laboratory procedures. Specifically, a blue dye was first injected between the toes of the right hind limb to locate the lymph ducts. A single duct was then disected out and cannulated. One of the six compounds was then selected and a syringe pump used to inject the test compound into the duct at a constant rate. In this regard, the dogs were injected with an effective amount of one (1) cc of test substance per 20 lbs. of body weight. The iodinated phenyl compounds were brought to about body temperature prior to the injecting and then were injected while at about the body temperature.\nRadiographs were then taken of each animal after confirming the location of the injected bolus by fluoroscopy means. The animals were given atropine sulfate and observations made while they were allowed to recover from the anesthetic unassisted.\nThe animals were then returned to their cages and radiographs were taken at the end of 24 hours, 3 days and 1, 2, 3, 4 and 6 weeks to determine the radiographic clearance rate of each tested compound. Daily urine samples were also collected and subjected to fluorescent exitation analysis to determine the urinary clearance rate for each compound. Six weeks after the initial lymphogram, the animals were sacrificed and the popliteal and iliac nodes on both sides removed. The nodes from the dosed side and undosed side of each animal were then compared histopathologically."}, "[5]": {"tested_on": "lung", "assay": "Bronchography study of laboratory animals (insuflation of a caudal lobe of one lung)", "conditions": "dog, dosed lobe, 2 weeks", "method": "(§1) Food was withdrawn from each animal 12 hours prior to dosing with water given ad lib. The animals were then first anesthetized with sodium pentobarbital and maintained on halothane. Each animal was then intubated with a tracheal tube and scouting X-ray films were taken to confirm its position. Next, a stainless steel guide wire was passed through a polypropylene tube, i.e., insuflation tube, and this combination was passed into the animal's lung. The position of this guide wire was then confirmed by fluoroscopy and the guide wire then removed, thus leaving the insulfation tube in place.\n(§2) In this regard, the amount of selected iodinated phenyl carbonate compound varied for each animal according to weight, with 6 cc being given to the heaviest test dog. Oxygen at 20 psi was then used to insuflate a caudal lobe of one lung of each animal while monitoring with fluoroscopy. Lateral and direct view radiographs were then taken. […] Food was then given after 12 hours.\n(§3) At 2 weeks, the animals were then anesthetized and radiographs taken while the lungs were expanded by air insuflation. The animals were then sacrificed by injection of saline and the dosed lobe of each animal examined histopathologically and compared with the corresponding undosed lobe."}, "[6]": {"tested_on": "lung", "conditions": "dog, in vivo", "method": "as §1, §2, §3"}}}
{"smiles": "CCCCCCOC(=O)OCc1c(I)cc(I)c(N)c1I", "note": "[r, 3-Amino-2,4,6-Triiodobenzyl-n-Hexyl Carbonate]", "values": [{"measurement": "Approximate Lethal Dose (ALD)", "setting": "[1]", "result": "greater than 11 Ml/Kg"}]}
{"smiles": "CCCC(CC)OC(=O)OCc1ccc(I)cc1", "note": "(stereo not drawn) [h, 3-Hexyl-p-Iodobenzyl Carbonate]", "values": [{"measurement": "Approximate Lethal Dose (ALD)", "setting": "[2]", "result": 3, "unit": "mL/kg"}]}
{"smiles": "CC(C)COC(=O)OCc1ccc(I)cc1", "note": "[a, p-Iodobenzyl Isobutyl Carbonate]", "values": [{"measurement": "Approximate Lethal Dose (ALD)", "setting": "[2]", "result": 3, "unit": "mL/kg"}]}
{"smiles": "CCCCCCC(C)OC(=O)OCc1ccc(I)cc1", "note": "(stereo not drawn) [i, 2-Octyl-p-Iodobenzyl Carbonate]", "values": [{"measurement": "Overall / histopathological response", "setting": "[3]", "result": "Relatively more severe histopathological responses"}, {"measurement": "Difficulty with righting responses", "setting": "[3]", "result": "more animals exhibiting righting difficulty"}, {"measurement": "Recovery from the injection procedure", "setting": "[3]", "result": "taking longer to recover"}, {"measurement": "Approximate Lethal Dose (ALD)", "setting": "[2]", "result": 15, "unit": "mL/kg"}]}
{"smiles": "CCCCCOC(=O)OCc1ccc(I)cc1", "note": "[b, n-Amyl-p-Iodobenzyl Carbonate]", "values": [{"measurement": "Approximate Lethal Dose (ALD)", "setting": "[2]", "result": 3, "unit": "mL/kg"}]}
{"smiles": "CCCCCCOC(=O)OCCCc1ccc(I)cc1", "note": "[n, n-Hexyl-3-(p-Iodophenyl)Propyl Carbonate]", "values": [{"measurement": "Overall / histopathological response", "setting": "[3]", "result": "Relatively more severe histopathological responses"}, {"measurement": "Difficulty with righting responses", "setting": "[3]", "result": "more animals exhibiting righting difficulty"}, {"measurement": "Recovery from the injection procedure", "setting": "[3]", "result": "taking longer to recover"}, {"measurement": "Approximate Lethal Dose (ALD)", "setting": "[2]", "result": 15, "unit": "mL/kg"}]}
{"smiles": "CCCCCCOC(=O)Oc1ccc(I)cc1", "note": "[j, n-Hexyl-p-Iodophenyl Carbonate]", "values": [{"measurement": "Approximate Lethal Dose (ALD)", "setting": "[2]", "result": 7, "unit": "mL/kg"}]}
{"smiles": "CCCCCCCCOC(=O)OCc1ccc(I)cc1", "note": "[e, n-Octyl-p-Iodobenzyl Carbonate]", "values": [{"measurement": "Histopathology of dosed nodes", "setting": "[4]", "result": "mild granulomatous lymphadenitis or lipoidal lymphadenopathy"}, {"measurement": "Overall result after six weeks", "setting": "[4]", "result": "excellent overall results with only minor histopathological responses"}, {"measurement": "Radiographic state of iliac node", "setting": "[4]", "result": "small droplets could be seen"}, {"measurement": "Radiographic state of popliteal node", "setting": "[4]", "result": "clear"}, {"measurement": "Rate of clearance and elimination (order, fastest to slowest)", "setting": "[4]", "result": "p-iodobenzyl-n-hexyl carbonate, p-iodobenzyl-n-octyl carbonate and ethiodol"}, {"measurement": "Overall / histopathological response", "setting": "[3]", "result": "overall responses close to air and Pantopaque approximating normal"}, {"measurement": "Lipid puddle formation", "setting": "[3]", "result": "slightly more lipid puddle formation"}, {"measurement": "Difficulty with righting responses", "setting": "[3]", "result": "an occasional animal showing some difficulty with righting responses"}, {"measurement": "Approximate Lethal Dose (ALD)", "setting": "[2]", "result": 15, "unit": "mL/kg"}]}
{"smiles": "COC(=O)OC(C)c1ccc(I)cc1", "note": "(stereo not drawn) [v, p-Iodo-sec-Phenethyl Methyl Carbonate, reference compound]", "values": [{"measurement": "Intraperitoneal toxicity (in words)", "setting": "[2]; compared with the compounds of Table II", "result": "more toxic"}, {"measurement": "Approximate Lethal Dose (ALD)", "setting": "[2]", "result": 1.5, "unit": "mL/kg"}]}
{"smiles": "CCCCCCOC(=O)OCCc1ccc(I)cc1", "note": "[m, n-Hexyl-p-Iodophenethyl Carbonate]", "values": [{"measurement": "Approximate Lethal Dose (ALD)", "setting": "[2]", "result": 7, "unit": "mL/kg"}]}
{"smiles": "CCCCOC(=O)SCc1ccc(I)cc1", "note": "[S-(p-iodobenzyl)-n-butyl thiolcarbonate]", "values": [{"measurement": "Histopathology of dosed nodes", "setting": "[4]", "result": "mild granulomatous lymphadenitis or lipoidal lymphadenopathy"}, {"measurement": "Overall result after six weeks", "setting": "[4]", "result": "excellent overall results with only minor histopathological responses"}, {"measurement": "Rate of clearance and elimination (order, fastest to slowest)", "setting": "[4]", "result": "almost the same"}, {"measurement": "Time to radiographically clear", "setting": "[4]", "result": "≤ 6", "unit": "weeks"}]}
{"smiles": "CCOC(=O)OCc1ccc(I)cc1", "note": "[p-iodobenzyl ethyl carbonate]", "values": [{"measurement": "Clearance of nodes", "setting": "[4]", "result": "~3", "unit": "days"}, {"measurement": "Histopathology of dosed nodes", "setting": "[4]", "result": "no change in the nodes"}, {"measurement": "Overall result after six weeks", "setting": "[4]", "result": "indistinguishable from undosed animals"}, {"measurement": "Rate of clearance and elimination (order, fastest to slowest)", "setting": "[4]", "result": "fastest"}]}
{"smiles": "CCCCOC(=O)OCc1ccc(I)cc1", "note": "[p-iodobenzyl-n-butyl carbonate]", "values": [{"measurement": "Histopathology of dosed nodes", "setting": "[4]", "result": "no change in the nodes"}, {"measurement": "Overall result after six weeks", "setting": "[4]", "result": "indistinguishable from undosed animals"}, {"measurement": "Rate of clearance and elimination (order, fastest to slowest)", "setting": "[4]", "result": "almost the same"}, {"measurement": "Time to radiographically clear", "setting": "[4]", "result": "≤ 6", "unit": "weeks"}]}
{"smiles": "CCCCCCCCOC(=O)OCc1cccc(I)c1", "note": "[t, m-Iodobenzyl-n-Octyl Carbonate]", "values": [{"measurement": "Approximate Lethal Dose (ALD)", "setting": "[2]", "result": "greater than 17 Ml/Kg"}]}
{"smiles": "CCCCCCOC(=O)OCCC(C)c1ccc(I)cc1", "note": "(stereo not drawn) [o, n-Hexyl-3-(p-Iodophenyl)Butyl Carbonate]", "values": [{"measurement": "Approximate Lethal Dose (ALD)", "setting": "[2]", "result": 7, "unit": "mL/kg"}]}
{"smiles": "CCCCC(CC)COC(=O)OCc1ccc(I)cc1", "note": "(stereo not drawn) [g, 2-Ethylhexyl-p-Iodobenzyl Carbonate]", "values": [{"measurement": "Overall / histopathological response", "setting": "[3]", "result": "Relatively more severe histopathological responses"}, {"measurement": "Difficulty with righting responses", "setting": "[3]", "result": "more animals exhibiting righting difficulty"}, {"measurement": "Recovery from the injection procedure", "setting": "[3]", "result": "taking longer to recover"}, {"measurement": "Approximate Lethal Dose (ALD)", "setting": "[2]", "result": 15, "unit": "mL/kg"}]}
{"smiles": "CCCCCCOC(=O)OCc1cc(I)cc(I)c1", "note": "[s, 3,5-Diiodobenzyl-n-Hexyl Carbonate]", "values": [{"measurement": "Approximate Lethal Dose (ALD)", "setting": "[2]", "result": 5, "unit": "mL/kg"}]}
{"smiles": "CCCCCCCCCCOC(=O)OCc1ccc(I)cc1", "note": "[f, n-Decyl-p-Iodobenzyl Carbonate]", "values": [{"measurement": "Approximate Lethal Dose (ALD)", "setting": "[2]", "result": 10.5, "unit": "mL/kg"}]}
{"smiles": "CCCCCCOC(=O)OCC(CCCC)Cc1ccc(I)cc1", "note": "(stereo not drawn) [q, n-Hexyl-2-(p-Iodobenzyl)-n-Hexyl Carbonate]", "values": [{"measurement": "Approximate Lethal Dose (ALD)", "setting": "[2]", "result": "greater than 15 Ml/Kg"}]}
{"smiles": "CC(C)CC(C)OC(=O)OCc1ccc(I)cc1", "note": "(stereo not drawn) [d, p-Iodobenzyl-4-methyl-2-Pentyl Carbonate]", "values": [{"measurement": "Approximate Lethal Dose (ALD)", "setting": "[2]", "result": 7, "unit": "mL/kg"}]}
{"smiles": "CCCCCCOC(=O)OC(C)c1ccc(I)cc1", "note": "(stereo not drawn) [l, n-Hexyl-p-Iodo-sec-Phenethyl Carbonate]", "values": [{"measurement": "Approximate Lethal Dose (ALD)", "setting": "[2]", "result": 10.5, "unit": "mL/kg"}]}
{"smiles": "CCCCCCOC(=O)OCC(CC)Cc1ccc(I)cc1", "note": "(stereo not drawn) [p, n-Hexyl-2-(p-Iodobenzyl)Butyl Carbonate]", "values": [{"measurement": "Overall / histopathological response", "setting": "[3]", "result": "overall responses close to air and Pantopaque approximating normal"}, {"measurement": "Lipid puddle formation", "setting": "[3]", "result": "slightly more lipid puddle formation"}, {"measurement": "Difficulty with righting responses", "setting": "[3]", "result": "an occasional animal showing some difficulty with righting responses"}, {"measurement": "Approximate Lethal Dose (ALD)", "setting": "[2]", "result": "greater than 15 Ml/Kg"}]}
{"smiles": "CCCCCCOC(=O)OCc1ccc(I)cc1", "note": "[c, n-Hexyl-p-Iodobenzyl Carbonate]", "values": [{"measurement": "Rate of clearance and elimination (order, fastest to slowest)", "setting": "[4]", "result": "p-iodobenzyl-n-butyl carbonate, p-iodobenzyl-n-hexyl carbonate, p-iodobenzyl-n-octyl carbonate and ethiodol"}, {"measurement": "Time to radiographically clear", "setting": "[4]", "result": "≤ 6", "unit": "weeks"}, {"measurement": "Overall / histopathological response", "setting": "[3]", "result": "Relatively more severe histopathological responses"}, {"measurement": "Difficulty with righting responses", "setting": "[3]", "result": "more animals exhibiting righting difficulty"}, {"measurement": "Recovery from the injection procedure", "setting": "[3]", "result": "taking longer to recover"}, {"measurement": "Approximate Lethal Dose (ALD)", "setting": "[2]", "result": 7, "unit": "mL/kg"}]}
{"smiles": "CCOC(=O)OCc1c(I)cc(I)c(NC(C)=O)c1I", "note": "[u, 3-acetamido-(2,4,6-triiodobenzyl)ethyl carbonate]", "values": [{"measurement": "Approximate Lethal Dose (ALD)", "setting": "[1]", "result": "greater than 22 Ml/Kg"}, {"measurement": "Gross lesions related to instillation", "setting": "[5]", "result": "No gross lesions were found that appeared specifically related to instillation of the contrast medium"}, {"measurement": "Histopathological alterations of dosed lobes", "setting": "[6]", "result": "obliterative granulomatous bronchiolitis"}, {"measurement": "Persistence of compound in lung", "setting": "[6]", "result": "some evidence the iodinated phenyl carbonate had persisted and was responsible for this granulomatous bronchiolitis"}]}
{"smiles": "CCCCCCCCOC(=O)Oc1ccc(I)cc1", "note": "[k, n-Octyl-p-Iodphenyl Carbonate]", "values": [{"measurement": "Approximate Lethal Dose (ALD)", "setting": "[2]", "result": 7, "unit": "mL/kg"}]}
